Measured values from PubChem BioAssay AID1963970 (Molecular Pharmacology Branch, DTP, NCI, 2024).

System: 931267-113-T-J1-PDC multicell spheroid viability
Assay: Anticancer human tumor 931267-113-T-J1-PDC patient-derived colon adenocarcinoma cell line growth inhibition [PI3K]
Settings: for IC50: curve of first compound; for viability, T/C: stronger effect = lower value
Outline: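 Complex 3D spheroids (cancer cells + endothelial HUVEC + mesenchymal stem cells); drug pairs of targeted agent x inavolisib/alpelisib/duvelisib/copanlisib; half-log series from ~Cmax, max 10 microM if Cmax unknown; endpoint viability.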

[1] = second compound 0.00316 µM, first compound 0.0316 µM
[2] = second compound 0.00316 µM, first compound 0.1 µM
[3] = second compound 0.00316 µM, first compound 0.316 µM
[4] = second compound 0.00316 µM, first compound 1 µM
[5] = second compound 0.00316 µM, first compound 3.16 µM
[6] = second compound 0.00316 µM, first compound 10 µM
[7] = second compound 0.01 µM, first compound 0.0316 µM
[8] = second compound 0.01 µM, first compound 0.1 µM
[9] = second compound 0.01 µM, first compound 0.316 µM
[10] = second compound 0.01 µM, first compound 1 µM
[11] = second compound 0.01 µM, first compound 3.16 µM
[12] = second compound 0.01 µM, first compound 10 µM
[13] = second compound 0.0316 µM, first compound 0.0316 µM
[14] = second compound 0.0316 µM, first compound 0.1 µM
[15] = second compound 0.0316 µM, first compound 0.316 µM
[16] = second compound 0.0316 µM, first compound 1 µM
[17] = second compound 0.0316 µM, first compound 3.16 µM
[18] = second compound 0.0316 µM, first compound 10 µM
[19] = second compound 0.1 µM, first compound 0.0316 µM
[20] = second compound 0.1 µM, first compound 0.1 µM
[21] = second compound 0.1 µM, first compound 0.316 µM
[22] = second compound 0.1 µM, first compound 1 µM
[23] = second compound 0.1 µM, first compound 3.16 µM
[24] = second compound 0.1 µM, first compound 10 µM
[25] = second compound 0.316 µM, first compound 0.0316 µM
[26] = second compound 0.316 µM, first compound 0.1 µM
[27] = second compound 0.316 µM, first compound 0.316 µM
[28] = second compound 0.316 µM, first compound 1 µM
[29] = second compound 0.316 µM, first compound 3.16 µM
[30] = second compound 0.316 µM, first compound 10 µM
[31] = second compound 1 µM, first compound 0.0316 µM
[32] = second compound 1 µM, first compound 0.1 µM
[33] = second compound 1 µM, first compound 0.316 µM
[34] = second compound 1 µM, first compound 1 µM
[35] = second compound 1 µM, first compound 3.16 µM
[36] = second compound 1 µM, first compound 10 µM
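Also: viability read 7 days after compound addition.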

## C#Cc1c(F)ccc2cc(O)cc(-c3ncc4c(N5CC6CCC(C5)N6)nc(OCC56CCCN5CC(F)C6)nc4c3F)c12 (stereo not drawn) + COc1c(OCCCN2CCOCC2)ccc2c3n(c(=NC(=O)c4cnc(N)nc4)nc12)CCN3
Second compound 0.00316 µM
  IC50: 384 nM
Second compound 0.01 µM
  IC50: 238 nM
Second compound 0.0316 µM
  IC50: 93.2 nM
Second compound 0.1 µM
  IC50: 37.8 nM
Second compound 0.316 µM
  IC50: < 31.6 nM
Second compound 1 µM
  IC50: < 31.6 nM
[1]
  viability, T/C: 78.6%
[2]
  viability, T/C: 67.9%
[3]
  viability, T/C: 51.9%
[4]
  viability, T/C: 38%
[5]
  viability, T/C: 24.8%
[6]
  viability, T/C: 17.2%
[7]
  viability, T/C: 84.7%
[8]
  viability, T/C: 70.5%
[9]
  viability, T/C: 39.2%
[10]
  viability, T/C: 32.4%
[11]
  viability, T/C: 21.2%
[12]
  viability, T/C: 15.9%
[13]
  viability, T/C: 62.3%
[14]
  viability, T/C: 52.1%
[15]
  viability, T/C: 30.2%
[16]
  viability, T/C: 23.8%
[17]
  viability, T/C: 21.4%
[18]
  viability, T/C: 11%
[19]
  viability, T/C: 54%
[20]
  viability, T/C: 34.4%
[21]
  viability, T/C: 25.5%
[22]
  viability, T/C: 19%
[23]
  viability, T/C: 13.3%
[24]
  viability, T/C: 6.82%
[25]
  viability, T/C: 36.4%
[26]
  viability, T/C: 26.7%
[27]
  viability, T/C: 17.1%
[28]
  viability, T/C: 10.5%
[29]
  viability, T/C: 7.67%
[30]
  viability, T/C: 4.44%
[31]
  viability, T/C: 24.3%
[32]
  viability, T/C: 20.9%
[33]
  viability, T/C: 11.7%
[34]
  viability, T/C: 8.76%
[35]
  viability, T/C: 5.6%
[36]
  viability, T/C: 3.48%

## C=CC(=O)N1CCN(c2nc(=O)n(-c3c(C)ccnc3C(C)C)c3nc(-c4c(O)cccc4F)c(F)cc23)C(C)C1 (stereo not drawn) + COc1c(OCCCN2CCOCC2)ccc2c3n(c(=NC(=O)c4cnc(N)nc4)nc12)CCN3
Second compound 0.00316 µM
  IC50: > 10000 nM
Second compound 0.01 µM
  IC50: > 10000 nM
Second compound 0.0316 µM
  IC50: > 10000 nM
Second compound 0.1 µM
  IC50: > 10000 nM
Second compound 0.316 µM
  IC50: < 31.6 nM
Second compound 1 µM
  IC50: < 31.6 nM
[1]
  viability, T/C: 107%
[2]
  viability, T/C: 107%
[3]
  viability, T/C: 101%
[4]
  viability, T/C: 95.3%
[5]
  viability, T/C: 103%
[6]
  viability, T/C: 101%
[7]
  viability, T/C: 102%
[8]
  viability, T/C: 106%
[9]
  viability, T/C: 91.4%
[10]
  viability, T/C: 99.4%
[11]
  viability, T/C: 103%
[12]
  viability, T/C: 81.1%
[13]
  viability, T/C: 95.5%
[14]
  viability, T/C: 98.3%
[15]
  viability, T/C: 90.4%
[16]
  viability, T/C: 85.1%
[17]
  viability, T/C: 86.5%
[18]
  viability, T/C: 79.1%
[19]
  viability, T/C: 71.2%
[20]
  viability, T/C: 68.6%
[21]
  viability, T/C: 70.5%
[22]
  viability, T/C: 73.7%
[23]
  viability, T/C: 71.4%
[24]
  viability, T/C: 62.5%
[25]
  viability, T/C: 49.5%
[26]
  viability, T/C: 44.1%
[27]
  viability, T/C: 47.6%
[28]
  viability, T/C: 51.5%
[29]
  viability, T/C: 52.3%
[30]
  viability, T/C: 46.6%
[31]
  viability, T/C: 35.1%
[32]
  viability, T/C: 29.1%
[33]
  viability, T/C: 35.1%
[34]
  viability, T/C: 35.3%
[35]
  viability, T/C: 36.5%
[36]
  viability, T/C: 32.5%

## CC(Cn1ccc(-c2ccc(C#N)c(Cl)c2)n1)NC(=O)c1cc(C(C)O)[nH]n1 (stereo not drawn) + COc1c(OCCCN2CCOCC2)ccc2c3n(c(=NC(=O)c4cnc(N)nc4)nc12)CCN3
Second compound 0.00316 µM
  IC50: > 10000 nM
Second compound 0.01 µM
  IC50: > 10000 nM
Second compound 0.0316 µM
  IC50: > 10000 nM
Second compound 0.1 µM
  IC50: > 10000 nM
Second compound 0.316 µM
  IC50: < 31.6 nM
Second compound 1 µM
  IC50: < 31.6 nM
[1]
  viability, T/C: 95.4%
[2]
  viability, T/C: 96.7%
[3]
  viability, T/C: 104%
[4]
  viability, T/C: 99.4%
[5]
  viability, T/C: 99.8%
[6]
  viability, T/C: 104%
[7]
  viability, T/C: 89.7%
[8]
  viability, T/C: 102%
[9]
  viability, T/C: 97.8%
[10]
  viability, T/C: 100%
[11]
  viability, T/C: 92.5%
[12]
  viability, T/C: 85.9%
[13]
  viability, T/C: 91.8%
[14]
  viability, T/C: 96.4%
[15]
  viability, T/C: 78.6%
[16]
  viability, T/C: 82.5%
[17]
  viability, T/C: 78.4%
[18]
  viability, T/C: 70.5%
[19]
  viability, T/C: 68.8%
[20]
  viability, T/C: 72.5%
[21]
  viability, T/C: 64.9%
[22]
  viability, T/C: 65.4%
[23]
  viability, T/C: 65.3%
[24]
  viability, T/C: 63.1%
[25]
  viability, T/C: 47.5%
[26]
  viability, T/C: 44.1%
[27]
  viability, T/C: 45.3%
[28]
  viability, T/C: 42.4%
[29]
  viability, T/C: 47.7%
[30]
  viability, T/C: 37.9%
[31]
  viability, T/C: 32.5%
[32]
  viability, T/C: 34.4%
[33]
  viability, T/C: 30.9%
[34]
  viability, T/C: 32.5%
[35]
  viability, T/C: 34.5%
[36]
  viability, T/C: 29.5%

## CC1(C)CCC(Nc2ncc(C(F)(F)F)c(-c3c[nH]c4c(P(C)(C)=O)c(C#N)ccc34)n2)CN1 (stereo not drawn) + COc1c(OCCCN2CCOCC2)ccc2c3n(c(=NC(=O)c4cnc(N)nc4)nc12)CCN3
Second compound 0.00316 µM
  IC50: > 10000 nM
Second compound 0.01 µM
  IC50: > 10000 nM
Second compound 0.0316 µM
  IC50: > 10000 nM
Second compound 0.1 µM
  IC50: 4290 nM
Second compound 0.316 µM
  IC50: < 31.6 nM
Second compound 1 µM
  IC50: < 31.6 nM
[1]
  viability, T/C: 92.5%
[2]
  viability, T/C: 94.2%
[3]
  viability, T/C: 91.6%
[4]
  viability, T/C: 81.2%
[5]
  viability, T/C: 76.5%
[6]
  viability, T/C: 69.3%
[7]
  viability, T/C: 97.3%
[8]
  viability, T/C: 89.5%
[9]
  viability, T/C: 81.5%
[10]
  viability, T/C: 83.5%
[11]
  viability, T/C: 77.3%
[12]
  viability, T/C: 61.5%
[13]
  viability, T/C: 81.6%
[14]
  viability, T/C: 78%
[15]
  viability, T/C: 77.6%
[16]
  viability, T/C: 67.1%
[17]
  viability, T/C: 70.6%
[18]
  viability, T/C: 55.2%
[19]
  viability, T/C: 64.5%
[20]
  viability, T/C: 66.1%
[21]
  viability, T/C: 60%
[22]
  viability, T/C: 58.2%
[23]
  viability, T/C: 55.5%
[24]
  viability, T/C: 39.8%
[25]
  viability, T/C: 47.3%
[26]
  viability, T/C: 44.8%
[27]
  viability, T/C: 41.2%
[28]
  viability, T/C: 41.5%
[29]
  viability, T/C: 40.6%
[30]
  viability, T/C: 33.5%
[31]
  viability, T/C: 33.8%
[32]
  viability, T/C: 30.1%
[33]
  viability, T/C: 30.2%
[34]
  viability, T/C: 28.3%
[35]
  viability, T/C: 30.5%
[36]
  viability, T/C: 20.9%
